Ends that are not written are not given here.
What was measured:
[1] = test system: GPNMB-positive cells; assay: Analysis of Gpnmb-dependent luciferase activity (in vivo IVIS imaging); parameters: species or system Gpnmb-DTR mouse; settings: Reference Example 1; HFD-fed Gpnmb-DTR mice, DT 50 μg/kg i.p. twice (12 and 14 weeks of age), 16 weeks of age; FIG. 1B
Method: Gpnmb-DTR mouse bred by feeding normal diet or HFD for 4 weeks, and Gpnmb-DTR mouse bred by feeding HFD for 4 weeks, and then injecting DT (50 μg/kg body weight) at 2-week intervals (12 weeks of age and 14 weeks of age) intraperitoneally twice while continuing to feed HFD (16 weeks of age) were subjected to in vivo luciferase imaging analysis using the IVIS imaging system (Perkin Elmer). Mice were shaved ventrally, anesthetized with isoflurane (Wako Pure Chemicals Industries), and injected intraperitoneally with luciferin (150 mg/kg body weight) according to the manufacturer's instructions (Vivo-Glo; Promega). Luciferase activity was monitored 5 minutes after luciferin administration. Signals were analyzed using Living Image software (Perkin Elmer) to quantify luciferase activity. In FIG. 1B, “Before” is a Gpnmb-DTR mouse before HFD was fed (6 weeks of age), “HFD” is a Gpnmb-DTR mouse that was fed with HFD from 6 weeks of age and bred for 6 weeks (12 weeks of age), and “After DT” is a Gpnmb-DTR mouse that was bred by feeding HFD for 4 weeks and then injecting DT (50 μg/kg body weight) at 2-week intervals (12 weeks of age and 14 weeks of age) intraperitoneally twice while continuing to feed HFD (16 weeks of age). […]

[2] = test system: GPNMB protein; assay: Antibody titer by ELISA in plasma of vaccinated mice; type: in vivo, C57BL/6 mice; settings: vs control vaccine group; KLH-bound peptide 20 μg with Titer Max Gold s.c. at 8 weeks of age, HFD-fed mice; plasma up to 6 weeks; FIG. 2A
Method: First, the antibody titers of the obtained two peptide vaccines were examined. Peptide vaccine 1 or peptide vaccine 2 (20 μg) and Titer Max Gold adjuvant (Titer Max USA) conjugated with KLH as carrier protein for induction of cytotoxic antibody were mixed in two syringes according to the manufacturer's protocol for emulsification. Subsequently, eight-week-old C57BL/6 mice fed with HFD from 4 weeks of age were subcutaneously injected with KLH-binding antigen peptide (20 μg) with a Titer Max Gold adjuvant to induce cytotoxic antibodies. C57BL/6 mice in the control group were subcutaneously injected with a KLH solution (hereinafter, referred to as “control vaccine”) mixed with Titer Max Gold in an equal amount. Plasma was collected from the tail vein of each mouse immediately after administration of the peptide vaccine and after 2, 4, and 6 weeks for antibody titer analysis. The antibody titer produced by injection of each peptide was measured by ELISA. Specifically, first, a 96-well microtiter plate (Nunc-Immuno MicroWell 96-well solid plate, Thermo Scientific) was coated using a carbonate buffer containing peptide vaccine 1 or peptide vaccine 2 bonded to bovine serum albumin (BSA). […] After reacting with the TMB substrate (Sigma-Aldrich, T0440), the optical density was measured at 450 nm (0D450) using a microtiter plate reader (iMark microplate reader, Bio-Rad).

[3] = Metabolic test (glucose tolerance test and insulin tolerance test); type: in vivo, C57BL/6 mice; settings: HFD-fed mice, 16 weeks of age, s.c. vaccination at 8 weeks of age; compared to control vaccine; FIG. 2I
Method: Mice were bred individually from 1 week before the test. On the day of the glucose tolerance test (GTT), mice were fasted for 6 hours, followed by intraperitoneal injection of glucose at a dose of 1 g/kg (body weight) in the early afternoon. For the insulin tolerance test (ITT), mice were intraperitoneally administered with human insulin (1 U/kg (body weight)). After administration of glucose or insulin, tail venous blood was collected 0, 15, 30, 60 and 120 minutes later, and the blood glucose level was measured with a glucose analyzer (Sanwa Chemical Research Institute).
A metabolic test was performed using the same method as in “5.” of Reference Example 1, except that C57BL/6 mice (16 weeks of age) bred by feeding HFD from 4 weeks of age and administered with peptide vaccine 1, peptide vaccine 2, or control vaccine by subcutaneous injection at a time point of 8 weeks of age were used. In FIG. 2I, “Cont vaccine” is a C57BL/6 mouse administered with a control vaccine, “Gpnmb vaccine 1” is a C57BL/6 mouse administered with peptide vaccine 1, and “Gpnmb vaccine 2” is a C57BL/6 mouse administered with peptide vaccine 2.

With “diphtheria toxin [DT, reference compound]” as the substance, how does the “abdominal luciferase activity (Gpnmb-dependent)” value [1] read?
The value was “attenuated”.

What does the source list for “RSQHLRFPDR (also: KLH conjugate; listed as Mus musculus) [peptide vaccine 2, peptide of positions 150 to 159 of mouse GPNMB protein]”?
antibody titer against GPNMB protein [2]: slightly higher; metabolic abnormality induced by HFD intake (glucose tolerance test and insulin tolerance test) [3]: significantly improved
